Ends that are not written are not given here. fluorescein = fluorescein label on the lysine ε-amino group

In one assay the target is eIF4E (GST-eIF4E) (Homo sapiens, UniProt P06730). In words: Fluorescence polarization. The conditions noted are these: for FP ratio: Table 3, IC50 of [Z]-4EGI-1/IC50 of compound in the same plate; for loss in binding affinity: relative to 4EGI-1, FP. The assay is classed as binding. In general terms: Polarisation of emitted light reports the rotation of a fluorescent probe.

In assay [1] the test system is cyclin D1, cyclin E, Survivin, β-Actin, α-Tubulin expression in CRL-2813 melanoma cells. Briefly: Western blot of regulatory and housekeeping protein expression in CRL-2813 cells. The assay is classed as cell-based, Human. The conditions noted are these: 6 hrs. Background: Immunoblotting shows a protein as a band on a membrane.
The target of assay [2] is GST-eIF4E fusion protein (recombinant, E. coli-expressed) (not stated (human or mouse cDNA cloned)) (UniProt P06730). In words: fluorescence polarisation.
Chain of GST-eIF4E fusion protein (recombinant, E. coli-expressed) (not stated (human or mouse cDNA cloned)) (P06730 27-217 limits assumed): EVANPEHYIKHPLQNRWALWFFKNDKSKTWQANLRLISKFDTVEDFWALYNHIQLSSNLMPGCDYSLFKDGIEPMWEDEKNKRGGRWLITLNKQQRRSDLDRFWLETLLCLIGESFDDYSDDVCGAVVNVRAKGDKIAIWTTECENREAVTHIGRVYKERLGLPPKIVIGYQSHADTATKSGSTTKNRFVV

Chain of eIF4E (GST-eIF4E) (P06730 27-217 limits assumed): as above

On to “2-(2-(5-(3,4-Dichlorophenyl)thiazol-2-yl)hydrazono)-3-(4-hydroxy-3-nitrophenyl)propanoic acid [[E]-11c]”, for which, at eIF4E (GST-eIF4E), the FP ratio is on record as 0.9.

For the molecule “2-(2-(5-(3,4-Dichlorophenyl)thiazol-2-yl)hydrazono)-3-(4-hydroxy-3-nitrophenyl)propanoic acid [[Z]-11c]”, the FP ratio on eIF4E (GST-eIF4E) came to 1.1.

Regarding “3-(4-Amino-3-nitrophenyl)-2-(2-(5-(3,4-dichlorophenyl)thiazol-2-yl)hydrazono)propanoic acid [[E]-11a]”, the FP ratio at eIF4E (GST-eIF4E) turned out to be 1.0.

For the molecule “4-(2-Carboxy-2-(2-(5-(3,4-dichlorophenyl)thiazol-2-yl)hydrazono)ethyl)-3-nitrobenzoic acid [[E]-11b]”, on eIF4E (GST-eIF4E), the FP ratio amounted to 0.6.

Regarding “4-(2-Carboxy-2-(2-(5-(3,4-dichlorophenyl)thiazol-2-yl)hydrazono)ethyl)-3-nitrobenzoic acid [[Z]-11b]”, the FP ratio on eIF4E (GST-eIF4E) stood at 0.9.

For the molecule `O=C(O)C(Cc1ccc(O)cc1)=NNc1nc(-c2ccc(Cl)c(Cl)c2)cs1` [Compound 10d, 2-(2-(4-(3,4-Dichlorophenyl)thiazol-2-yl)hydrazono)-3-(4-hydroxyphenyl)propanoic acid], the “loss in binding affinity” value on eIF4E (GST-eIF4E) is given as 30–40%.

Turning to `O=C(O)C(Cc1ccc(C(F)(F)F)cc1)=NNc1nc(-c2ccc(Cl)c(Cl)c2)cs1` [Compound 10i, 2-(2-(4-(3,4-Dichlorophenyl)thiazol-2-yl)hydrazono)-3-(4-(trifluoromethyl)phenyl)propanoic acid], the “loss in binding affinity” value at eIF4E (GST-eIF4E) is recorded as 30–40%.

With `O=C(O)/C(Cc1ccccc1[N+](=O)[O-])=N\Nc1nc(-c2ccc(Cl)c(Cl)c2)cs1` [[Z]-4EGI-1, 2-(2-(4-(3,4-Dichlorophenyl)thiazol-2-yl)hydrazono)-3-(2-nitrophenyl)propanoic acid, reference compound], in assay [1], the “expression of housekeeping proteins β-Actin and α-Tubulin” value is “not affected”; the “expression of regulatory proteins cyclin D1, cyclin E, and Survivin” value is on record as “markedly reduced”.

Consider `O=C(O)/C(Cc1ccccc1[N+](=O)[O-])=N\Nc1nc(-c2ccc(O)cc2)cs1` [[Z]-12b, 2-(2-(4-(4-Hydroxyphenyl)thiazol-2-yl)hydrazono)-3-(2-nitrophenyl)propanoic acid], for which, in assay [1], the “expression of housekeeping proteins β-Actin and α-Tubulin” value is “no effect”; the “expression of regulatory proteins cyclin D1, cyclin E, and Survivin” value is “no effect”.

B1: fluorescein labeled eIF4G-derived peptide …(ε-Flu)-OH (peptide)
peptide: KYTYDELFQLK(fluorescein)-OH
For orientation: Kd means the concentration at which binding is half-saturated. In the case of B1, the equilibrium dissociation constant (Kd) in assay [2] amounted to 3000 nM.

(Values after publication PMC4128255 (European journal of medicinal chemistry, 2014).)
